Data reported in patent US20230000876A1, “TREATING CANCERS WITH A CYCLIN-DEPENDENT KINASE INHIBITOR” (Nuvation Bio Inc., priority 2021, published 2023).

Tests used:
22Rv1 tumors = assay: 22Rv1 prostate tumor model (Example 3); format: in vivo, male Balb/c nude mice; settings: for T/C / TGI: PG-D24
Description: The in vivo anti-tumor efficacy of the compound of formula (I) either alone or in combination with enzalutamide prostate tumor model on male Balb/c nude mice was evaluated. The cell line is derived from a xenograft that was serially propagated in mice after castration—induced regression and relapse of the parental, androgen-dependent CWR22 xenograft.
In the study, the compound of formula (I) was dosed orally (po) once daily (QD) and enzalutamide, when administered, was dosed orally once daily for 25 days, as shown in Table 8.
The 22Rv1 tumor cells were maintained in vitro in RPMI1640 medium supplemented with 10% heat inactivated fetal bovine serum at 37° C. in an atmosphere of 5% CO2 in air. The tumor cells were routinely subcultured twice weekly. The cells growing in an exponential growth phase were harvested and counted for tumor inoculation.
Each mouse was inoculated subcutaneously at the right flank with 22Rv1 tumor cells (5*10^6) with 50% Matrigel for tumor development. The treatments were started on day 7 after tumor inoculation when the average tumor volume reached 94 mm^3. A total of 48 mice were selected and assigned into 6 groups. The testing articles were administrated to the mice according to Table 8.
The major endpoint was to see if the tumor growth could be delayed or mice could be cured. Tumor size was measured twice weekly in two dimensions using a caliper, and the volume was expressed in mm^3 using the formula: V=0.5 a×b^2 where a and b are the long and short diameters of the tumor, respectively. The tumor sizes are then used for the calculation of T/C and TGI values.
The T/C value (in percent) is an indication of antitumor effectiveness; T and C are the mean volume of the treated and control groups, respectively, on a given day.
TGI was calculated for each group using the formula: TGI (%)=[1−(Ti−T0)/(Vi−V0)]×100; Ti is the average tumor volume of a treatment group on PG-Di, T0 is the average tumor volume of the treatment group on the day of treatment start, Vi is the average tumor volume of the vehicle control group on the same day with Ti, and V0 is the average tumor volume of the vehicle group on the day of treatment start.
All groups were taken down on PG-D24 and PG-D25 when the average tumor size of vehicle group reached 2305 mm^3.
Summary statistics, including mean and the standard error of the mean (SEM), are provided for the tumor volume of each group at each time point. For comparison among groups, a one-way ANOVA was performed. All the analysis were conducted using GraphPad Prism software. p<0.05 was considered to be statistically significant.

COLO 829 = assay: Cell viability assay, melanoma cell line COLO 829; format: cell-based
Description: 4.4.4 Compound Plate (10×) Preparation and Compound Treatment • 10× concentrate compound plate preparation: Add 198 μL of assay medium into each well of the V-bottom plate; then transfer 2 μL of the stock compound solution of each concentration from the stock plate. Add 2 μL of DMSO into the Blank and Control wells. Pipette up and down to mix well. This V-plate is designated as the 10× concentrate compound plate. • For day 0 plate, add 15 μL of the DMSO-medium into the Control wells. The final DMSO concentration was 0.1%. Then directly proceed to cell viability assay. • For assay plate, add 15 μL of the compound-medium of each well from the 10× concentrate compound plate into the cells in 96-well assay plate according to the plate map. Add 15 μL of the DMSO-medium into the Blank and Control wells. The final DMSO concentration was 0.1%. • Return the assay plate into incubator and incubate for 6 days.
The procedures were performed according to the Promega CellTiter-Glo Luminescent Cell Viability Assay Kit manual (Promega-G7573). • The CellTiter-Glo buffer was thawed and equilibrated to room temperature prior to use. • CellTiter-Glo Substrate was equilibrated to room temperature prior to use. • The entire liquid volume of CellTiter-Glo Buffer was transferred into the amber bottle containing CellTiter-Glo Substrate to reconstitute the lyophilized enzyme/substrate mixture. […] Plates were covered with aluminum foil to protect from light. • The contents were mixed for 2 minutes on an orbital shaker to induce cell lysis. • The plate was incubated at room temperature for 20 minutes to stabilize luminescent signal. • Record luminescence on the 2104 EnVision plate reader.
Inhibition rate (IR) of the tested compounds was determined by the following formula: IR (%)=(1−(RLU compound−RLU day0)/(RLU control−RLU day0))*100%. The inhibitions of different dose of compound were calculated in Excel file, and then were used to plot inhibition curves and evaluate related parameters, such as Min (%), Max (%) and GI50. […]

xBT474 breast tumor = xBT474 breast tumor model (ER-negative/HER2-positive); settings: Group 5: Compound (I) 30 mg/kg PO QD*28 days

## CC(C)N1CCOc2c(F)cc(-c3nc(Nc4ccc(C5CCN(C)CC5)cn4)ncc3F)cc21 [Compound (I), 5-fluoro-4-(8-fluoro-4-isopropyl-3,4-dihydro-2H-benzo[b][1,4]oxazin-6-yl)-N-(5-(1-methylpiperidin-4-yl)pyridin-2-yl)pyrimidin-2-amine]
22Rv1 tumors; 10 mg/kg QD
  T/C: 61.13%
  TGI: 40.49%
22Rv1 tumors; Compound (I) 30 mg/kg QD
  T/C: 28.34%
  TGI: 74.71%
22Rv1 tumors; Group 3, 10 mg/kg PO QD, day 0
  Tumor volume (mean ± SEM): 94 ± 5 mm^3
22Rv1 tumors; Group 3, 10 mg/kg PO QD, day 3
  Tumor volume (mean ± SEM): 154 ± 12 mm^3
22Rv1 tumors; Group 3, 10 mg/kg PO QD, day 7
  Tumor volume (mean ± SEM): 257 ± 28 mm^3
22Rv1 tumors; Group 3, 10 mg/kg PO QD, day 10
  Tumor volume (mean ± SEM): 378 ± 40 mm^3
22Rv1 tumors; Group 3, 10 mg/kg PO QD, day 14
  Tumor volume (mean ± SEM): 598 ± 58 mm^3
22Rv1 tumors; Group 3, 10 mg/kg PO QD, day 17
  Tumor volume (mean ± SEM): 825 ± 87 mm^3
22Rv1 tumors; Group 3, 10 mg/kg PO QD, day 21
  Tumor volume (mean ± SEM): 1152 ± 114 mm^3
22Rv1 tumors; Group 3, 10 mg/kg PO QD, day 24
  Tumor volume (mean ± SEM): 1409 ± 102 mm^3
22Rv1 tumors; Group 4, 30 mg/kg PO QD, day 0
  Tumor volume (mean ± SEM): 94 ± 4 mm^3
22Rv1 tumors; Group 4, 30 mg/kg PO QD, day 3
  Tumor volume (mean ± SEM): 131 ± 13 mm^3
22Rv1 tumors; Group 4, 30 mg/kg PO QD, day 7
  Tumor volume (mean ± SEM): 165 ± 25 mm^3
22Rv1 tumors; Group 4, 30 mg/kg PO QD, day 10
  Tumor volume (mean ± SEM): 188 ± 30 mm^3
22Rv1 tumors; Group 4, 30 mg/kg PO QD, day 14
  Tumor volume (mean ± SEM): 289 ± 40 mm^3
22Rv1 tumors; Group 4, 30 mg/kg PO QD, day 17
  Tumor volume (mean ± SEM): 398 ± 60 mm^3
22Rv1 tumors; Group 4, 30 mg/kg PO QD, day 21
  Tumor volume (mean ± SEM): 546 ± 67 mm^3
22Rv1 tumors; Group 4, 30 mg/kg PO QD, day 24
  Tumor volume (mean ± SEM): 653 ± 64 mm^3
COLO 829; Homo sapiens, COLO-829, read-out: Absolute GI50
  GI50: 875 nM
COLO 829; inhibition rate
  Max (%): 107.94%
  Min (%): −3.11%
xBT474 breast tumor; Day 0
  Tumor volume (mean ± SEM): 146 ± 8 mm^3
xBT474 breast tumor; Day 4
  Tumor volume (mean ± SEM): 240 ± 20 mm^3
xBT474 breast tumor; Day 7
  Tumor volume (mean ± SEM): 250 ± 22 mm^3
xBT474 breast tumor; Day 11
  Tumor volume (mean ± SEM): 347 ± 45 mm^3
xBT474 breast tumor; Day 14
  Tumor volume (mean ± SEM): 408 ± 42 mm^3
xBT474 breast tumor; Day 18
  Tumor volume (mean ± SEM): 490 ± 59 mm^3
xBT474 breast tumor; Day 21
  Tumor volume (mean ± SEM): 549 ± 73 mm^3
xBT474 breast tumor; Day 25
  Tumor volume (mean ± SEM): 576 ± 79 mm^3
xBT474 breast tumor; Day 28
  Tumor volume (mean ± SEM): 617 ± 84 mm^3
xBT474 breast tumor; Day 32
  Tumor volume (mean ± SEM): 658 ± 99 mm^3
xBT474 breast tumor; Day 35
  Tumor volume (mean ± SEM): 721 ± 119 mm^3
xBT474 breast tumor; Day 39
  Tumor volume (mean ± SEM): 685 ± 107 mm^3
xBT474 breast tumor; Day 42
  Tumor volume (mean ± SEM): 694 ± 120 mm^3
xBT474 breast tumor; Day 46
  Tumor volume (mean ± SEM): 707 ± 116 mm^3
